CC50 and inhibition data for 9 molecules are collected here from patent publication US9951043B2, “Therapeutic compounds” (Gilead Sciences, Inc., priority 2013, dated 2018).

One data set relates to uninfected MT-4 cells. In words: Test B: Cytotoxicity Assay. Format: cell-based. As to the method: (§1) MT-4 cells were next mixed with HIV-IIIb at an m.o.i of 0.003 for 1 hour, after which time 35 μL of virus/cell mixture (2000 cells) was immediately added to each well containing 40 μL of diluted compound. The plates were then incubated at 37° C. for 5 days. […] Cell lysis was carried out by incubating at room temperature for 10 min and then chemiluminescence was read.
Test B: Cytotoxicity Assay
Compound cytotoxicity and the corresponding CC50 values was determined using the same protocol as described in the antiviral assay (Test A) except that uninfected cells were used.

The test system of the next data set is HIV-IIIb. Description: Test A: Antiviral Assay in MT4 Cells. It counts as cell-based, HIV-1. Particulars: Human immunodeficiency virus 1, IIIB, comparison with previously published compounds (WO 2013/006738); for inhibition at 0.2 µM: MT4, read-out: Response at 0.2 μM (percent inhibition of virus-induced cell killing), 0.2 μM; for inhibition at 2 µM: MT4, read-out: Response at 2 μM (percent inhibition of virus-induced cell killing), 2 μM. Here is the method:
Test A: Antiviral Assay in MT4 Cells
as §1
The data above represent an average over time of each assay for each compound. […] Thus, the data reported in the tables include the data reported in the priority document, as well as data from assays run in the intervening period.

Where [1] appears, read: uninfected MT-4 cells, same protocol as Test A, 5 days, read-out: CC50.

SMILES strings stand for the structures. Read-outs that look alike come from different tables or passages of the source. Bounds are passed on as bounds.

In the case of `Cn1nc(NS(C)(=O)=O)c2c(Cl)ccc(-c3ccc(C#CC(C)(C)O)nc3[C@H](Cc3cc(F)cc(F)c3)NC(=O)Cn3ncc4c3C(F)(F)[C@@H]3C[C@H]43)c21` [Compound 150, N—((S)-1-(3-(4-chloro-1-methyl-3-(methylsulfonamido)-1H-indazol-7-yl)-6-(3-hydroxy-3-methylbut-1-yn-1-yl)pyridin-2-yl)-2-(3,5-difluorophenyl)ethyl)-2-((3bS,4aR)-5,5-difluoro-3b,4,4a,5-tetrahydro-1H-cyclopropa[3,4]cyclopenta[1,2-c]pyrazol-1-yl)acetamide], the CC50 in the data set on uninfected MT-4 cells (setting [1]) amounted to 28.9 µM.
Same read-out and setting: the same measure for `Cn1nc(NS(C)(=O)=O)c2c(Cl)ccc(-c3ccc(C#CC(C)(C)N)nc3[C@H](Cc3cc(F)cc(F)c3)NC(=O)Cn3nc(C(F)F)c4c3C(F)(F)[C@@H]3C[C@H]43)c21` [Compound 127, N—((S)-1-(6-(3-amino-3-methylbut-1-yn-1-yl)-3-(4-chloro-1-methyl-3-(methylsulfonamido)-1H-indazol-7-yl)pyridin-2-yl)-2-(3,5-difluorophenyl)ethyl)-2-((3bS,4aR)-3-(difluoromethyl)-5,5-difluoro-3b,4,4a,5-tetrahydro-1H-cyclopropa[3,4]cyclopenta[1,2-c]pyrazol-1-yl)acetamide]: 8.76 µM; for `Cn1nc(NS(C)(=O)=O)c2c(Cl)ccc(-c3ccc(C#CC(C)(C)O)nc3[C@H](Cc3cc(F)cc(F)c3)NC(=O)Cn3nc(Cl)c4c3C(F)(F)[C@@H]3C[C@H]43)c21` [Compound 149, N—((S)-1-(3-(4-chloro-1-methyl-3-(methylsulfonamido)-1H-indazol-7-yl)-6-(3-hydroxy-3-methylbut-1-yn-1-yl)pyridin-2-yl)-2-(3,5-difluorophenyl)ethyl)-2-((3bS,4aR)-3-chloro-5,5-difluoro-3b,4,4a,5-tetrahydro-1H-cyclopropa[3,4]cyclopenta[1,2-c]pyrazol-1-yl)acetamide]: 26.7 µM.
Take `CC(C)(O)C#Cc1ccc(-c2ccc(F)c(C(N)=O)c2)c([C@H](Cc2cc(F)cc(F)c2)NC(=O)Cn2nc(C(F)F)c3c2C(F)(F)CCC3(F)F)n1`: in the data set on HIV-IIIb, the inhibition at 0.2 µM came to 71% and the inhibition at 2 µM worked out at 84%.
`NC(=O)c1cc(-c2ccc(-c3ccc(F)c(C(N)=O)c3)c([C@H](Cc3cc(F)cc(F)c3)NC(=O)Cn3nc(C(F)F)c4c3C(F)(F)CCC4(F)F)n2)ccc1F`: in the data set with HIV-IIIb, the inhibition at 0.2 µM was found to be 3% and the inhibition at 2 µM amounted to 58%.
As to `CC(C)(O)C#Cc1ccc(-c2ccc(F)c(C(N)=O)c2)c([C@H](Cc2cc(F)cc(F)c2)NC(=O)Cn2nc(C(F)(F)F)c3c2C(F)(F)[C@@H]2C[C@H]32)n1`, in the data set on HIV-IIIb, the inhibition at 0.2 µM is 96% and the inhibition at 2 µM is 90%.
For `C#Cc1ccc(-c2ccc(Cl)c3cnn(C)c23)c([C@H](Cc2cc(F)cc(F)c2)NC(=O)Cn2nc(C(F)F)c3c2C(F)(F)[C@@H]2C[C@H]32)n1` [Compound 136D, N—((S)-1-(3-(4-chloro-1-methyl-1H-indazol-7-yl)-6-ethynylpyridin-2-yl)-2-(3,5-difluorophenyl)ethyl)-2-((3bS,4aR)-3-(difluoromethyl)-55-difluoro-3b,4,4a,5-tetrahydro-1H-cyclopropa[3,4]cyclopenta[1,2-c]pyrazol-1-yl)acetamide], the cytotoxic concentration (CC50) in the data set with uninfected MT-4 cells was 7.43 µM.
Take `Cn1nc(NS(=O)(=O)C(F)(F)F)c2c(Cl)ccc(-c3ccc(C#CC(C)(C)O)nc3[C@H](Cc3cc(F)cc(F)c3)NC(=O)Cn3nc(C(F)F)c4c3C(F)(F)[C@@H]3C[C@H]43)c21` [Compound 171D]: the CC50 with uninfected MT-4 cells is over 42.5 µM.
For the molecule `Cc1nc(NS(C)(=O)=O)c2cccc(-c3ccc(C#CC(C)(C)O)nc3[C@H](Cc3cc(F)cc(F)c3)NC(=O)Cn3nc(C(F)F)c4c3C(F)(F)[C@@H]3C[C@H]43)n12` [Compound 120H, 2-((3bS,4aR)-3-(difluoromethyl)-5,5-difluoro-3b,4,4a,5-tetrahydro-1H-cyclopropa[3,4]cyclopenta[1,2-c]pyrazol-1-yl)-N—((S)-2-(3,5-difluorophenyl)-1-(6-(3-hydroxy-3-methylbut-1-yn-1-yl)-3-(3-methyl-1-(methylsulfonamido)imidazo[1,5-a]pyridin-5-yl)pyridin-2-yl)ethyl)acetamide], the CC50 in the data set with uninfected MT-4 cells (setting [1]) amounted to 11.7 µM.
